ChEMBL document CHEMBL5543165, “Recent Progress in DNA Damage Response-Targeting PROTAC Degraders” (J Med Chem, 2024)

How the values were obtained:
[1] = target: Protein cereblon/Bromodomain-containing protein 2 (Homo sapiens) (UniProt P25440+Q96SW2); experiment: PROTAC activity at CRBN/BRD2 in human MV4-11 cells assessed as maximal degradation of BRD2 protein level at 0.5 uM incubated for 4 hrs by Western blotting assay relative to control; format: cell-based
MV4-11 = experiment: Antitumor activity against human MV4-11 cells xenografted in BALB/c nude mouse assessed as tumor growth inhibition at 25 mg/kg, po administered once daily for 17 days relative to control; format: functional; conditions: MV4-11, 408 h, time 17 day, read-out: TGI
[2] = target: T1, von Hippel-Lindau disease tumor suppressor/SWI/SNF-related matrix-associated actin-dependent regulator of chromatin subfamily A member 4 (Homo sapiens, UniProt P51532+P40337); experiment: PROTAC activity at VHL/SMARCA4 in human RKO cells assessed as degradation of SMARCA4; format: cell-based
Target sequence in this assay (P51532 whole entry): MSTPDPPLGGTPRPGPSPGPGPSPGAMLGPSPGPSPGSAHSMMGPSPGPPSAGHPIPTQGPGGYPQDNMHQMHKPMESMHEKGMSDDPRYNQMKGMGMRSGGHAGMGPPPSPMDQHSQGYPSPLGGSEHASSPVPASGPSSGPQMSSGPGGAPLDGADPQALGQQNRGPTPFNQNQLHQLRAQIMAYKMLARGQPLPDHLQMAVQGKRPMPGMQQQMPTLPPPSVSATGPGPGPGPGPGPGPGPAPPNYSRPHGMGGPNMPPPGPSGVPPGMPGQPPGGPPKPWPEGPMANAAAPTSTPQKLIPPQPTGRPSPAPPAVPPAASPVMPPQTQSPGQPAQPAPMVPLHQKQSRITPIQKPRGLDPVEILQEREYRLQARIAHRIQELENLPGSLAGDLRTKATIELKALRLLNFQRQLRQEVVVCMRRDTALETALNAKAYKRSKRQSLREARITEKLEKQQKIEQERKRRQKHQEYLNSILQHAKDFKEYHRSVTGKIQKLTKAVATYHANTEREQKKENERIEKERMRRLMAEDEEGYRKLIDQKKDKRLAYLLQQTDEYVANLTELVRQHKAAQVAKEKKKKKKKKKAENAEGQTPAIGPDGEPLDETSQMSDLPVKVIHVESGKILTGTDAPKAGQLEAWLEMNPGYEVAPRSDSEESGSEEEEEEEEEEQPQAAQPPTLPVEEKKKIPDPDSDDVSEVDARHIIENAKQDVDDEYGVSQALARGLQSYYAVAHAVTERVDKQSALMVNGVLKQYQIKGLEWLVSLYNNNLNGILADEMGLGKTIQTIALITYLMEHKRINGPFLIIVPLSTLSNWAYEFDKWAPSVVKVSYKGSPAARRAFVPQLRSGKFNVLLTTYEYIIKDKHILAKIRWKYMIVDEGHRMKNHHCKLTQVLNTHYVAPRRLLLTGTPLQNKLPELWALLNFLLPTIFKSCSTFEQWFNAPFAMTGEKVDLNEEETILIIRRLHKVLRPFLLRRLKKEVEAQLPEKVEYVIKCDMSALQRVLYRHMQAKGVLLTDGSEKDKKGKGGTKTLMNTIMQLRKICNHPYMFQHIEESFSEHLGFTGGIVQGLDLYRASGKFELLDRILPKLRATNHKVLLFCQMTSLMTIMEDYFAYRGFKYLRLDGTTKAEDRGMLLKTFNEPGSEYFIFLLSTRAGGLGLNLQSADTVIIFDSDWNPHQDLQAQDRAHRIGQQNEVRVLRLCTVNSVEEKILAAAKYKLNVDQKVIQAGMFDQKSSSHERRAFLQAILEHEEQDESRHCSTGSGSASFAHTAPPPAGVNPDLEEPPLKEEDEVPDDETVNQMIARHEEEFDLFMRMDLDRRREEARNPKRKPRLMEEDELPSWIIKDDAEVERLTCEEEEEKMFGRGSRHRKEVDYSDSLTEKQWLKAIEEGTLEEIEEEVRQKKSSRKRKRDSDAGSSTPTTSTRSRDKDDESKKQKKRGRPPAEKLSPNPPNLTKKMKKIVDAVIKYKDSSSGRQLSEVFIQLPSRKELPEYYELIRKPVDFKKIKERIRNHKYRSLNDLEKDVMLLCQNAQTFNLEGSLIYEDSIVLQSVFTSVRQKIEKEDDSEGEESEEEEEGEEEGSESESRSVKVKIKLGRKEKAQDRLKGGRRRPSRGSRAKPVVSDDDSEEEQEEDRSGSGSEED
Target sequence in this assay (P40337 whole entry): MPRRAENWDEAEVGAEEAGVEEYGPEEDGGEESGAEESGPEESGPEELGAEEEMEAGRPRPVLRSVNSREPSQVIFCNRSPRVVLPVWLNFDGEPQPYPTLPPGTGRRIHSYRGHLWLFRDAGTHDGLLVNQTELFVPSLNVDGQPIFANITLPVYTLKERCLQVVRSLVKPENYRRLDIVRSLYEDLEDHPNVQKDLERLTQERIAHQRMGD

[3] = target: T1, von Hippel-Lindau disease tumor suppressor/SWI/SNF-related matrix-associated actin-dependent regulator of chromatin subfamily A member 4; experiment: PROTAC activity at VHL/SMARCA4 in human RKO cells assessed as maximal degradation of SMARCA4 at 10 nM relative to control; format: cell-based
Target sequence in this assay (P40337 whole entry, looked up): as the sequence (P40337 whole entry) above
Target sequence in this assay (P51532 whole entry, looked up): as the sequence (P51532 whole entry) above

[4] = target: T2, Protein cereblon/Wee1-like protein kinase (Homo sapiens) (UniProt P30291+Q96SW2); experiment: PROTAC activity at CRBN/Wee1 in human MV4-11 cells assessed as maximal degradation of Wee1 at 100 nM measured after 2 hrs by Western blot analysis relative to control; format: cell-based
MOLT-4 = experiment: Antiproliferative activity against human MOLT-4 cells assessed as reduction in cell viability incubated for 72 hrs by CellTiter-Glo Luminescent assay; format: functional, cell-based; conditions: MOLT-4, 72 h
[5] = target: T2, Protein cereblon/Wee1-like protein kinase (Homo sapiens); experiment: PROTAC activity at CRBN/Wee1 in human MV4-11 cells assessed as maximal degradation of Wee1 at 1 uM measured after 2 hrs by Western blot analysis relative to control; format: cell-based
[6] = target: T3, von Hippel-Lindau disease tumor suppressor/SWI/SNF-related matrix-associated actin-dependent regulator of chromatin subfamily A member 2 (Homo sapiens, UniProt P51531+P40337); experiment: PROTAC activity at VHL/SMARCA2 in human MV4-11 cells assessed as induction of SMARCA2 degradation at 10 uM by measuring maximal efficacy incubated for 20 hrs by Western blotting analysis relative to control; format: cell-based
[7] = target: Protein cereblon/Cyclin-dependent kinase 12 (Homo sapiens) (UniProt Q9NYV4+Q96SW2); experiment: PROTAC activity at CRBN/CDK12 in human HeLa cells assessed as maximal degradation of CDK12 at 1 uM measured after 24 hrs by Western blot analysis relative to control; format: cell-based
[8] = target: T3, von Hippel-Lindau disease tumor suppressor/SWI/SNF-related matrix-associated actin-dependent regulator of chromatin subfamily A member 2; experiment: PROTAC activity at VHL/SMARCA2 in human RKO cells assessed as degradation of SMARCA2 incubated for 18 hrs by Western blot analysis; format: cell-based
[9] = target: T4, von Hippel-Lindau disease tumor suppressor/Serine/threonine-protein kinase ATR (Homo sapiens) (UniProt Q13535+P40337); experiment: PROTAC activity at […]/VHL in […] human HCT-116 cells assessed as maximum protein degradation at 5 uM measured after 24 hrs by immunoblot analysis relative to control; format: cell-based
[10] = target: T4, von Hippel-Lindau disease tumor suppressor/Serine/threonine-protein kinase ATR (Homo sapiens); experiment: PROTAC activity at […]/VHL in human LoVo cells assessed as maximum protein degradation at 5 uM measured after 24 hrs by immunoblot analysis relative to control; format: cell-based
LoVo [11] = experiment: Antitumor activity against human LoVo cells xenografted in BALB/c mouse assessed as tumor growth inhibition at 25 mg/kg, ip administered once daily for 14 days relative to control; format: functional; conditions: 336 h, time 14 day, read-out: TGI
LoVo [12] = experiment: Antitumor activity against human LoVo cells xenografted in BALB/c mouse assessed as tumor growth inhibition at 50 mg/kg, ip administered once daily for 14 days relative to control; format: functional; conditions: 336 h, time 14 day, read-out: TGI
[13] = target: Protein cereblon/Poly [ADP-ribose] polymerase 1 (Homo sapiens, UniProt P09874+Q96SW2); experiment: PROTAC activity at CRBN/PARP1 in human SW620 cells assessed as degradation of PARP1 measured after 24 hrs by Western blot analysis; format: cell-based
Protein cereblon/Poly [ADP-ribose] polymerase 1, sequence (P09874 whole entry): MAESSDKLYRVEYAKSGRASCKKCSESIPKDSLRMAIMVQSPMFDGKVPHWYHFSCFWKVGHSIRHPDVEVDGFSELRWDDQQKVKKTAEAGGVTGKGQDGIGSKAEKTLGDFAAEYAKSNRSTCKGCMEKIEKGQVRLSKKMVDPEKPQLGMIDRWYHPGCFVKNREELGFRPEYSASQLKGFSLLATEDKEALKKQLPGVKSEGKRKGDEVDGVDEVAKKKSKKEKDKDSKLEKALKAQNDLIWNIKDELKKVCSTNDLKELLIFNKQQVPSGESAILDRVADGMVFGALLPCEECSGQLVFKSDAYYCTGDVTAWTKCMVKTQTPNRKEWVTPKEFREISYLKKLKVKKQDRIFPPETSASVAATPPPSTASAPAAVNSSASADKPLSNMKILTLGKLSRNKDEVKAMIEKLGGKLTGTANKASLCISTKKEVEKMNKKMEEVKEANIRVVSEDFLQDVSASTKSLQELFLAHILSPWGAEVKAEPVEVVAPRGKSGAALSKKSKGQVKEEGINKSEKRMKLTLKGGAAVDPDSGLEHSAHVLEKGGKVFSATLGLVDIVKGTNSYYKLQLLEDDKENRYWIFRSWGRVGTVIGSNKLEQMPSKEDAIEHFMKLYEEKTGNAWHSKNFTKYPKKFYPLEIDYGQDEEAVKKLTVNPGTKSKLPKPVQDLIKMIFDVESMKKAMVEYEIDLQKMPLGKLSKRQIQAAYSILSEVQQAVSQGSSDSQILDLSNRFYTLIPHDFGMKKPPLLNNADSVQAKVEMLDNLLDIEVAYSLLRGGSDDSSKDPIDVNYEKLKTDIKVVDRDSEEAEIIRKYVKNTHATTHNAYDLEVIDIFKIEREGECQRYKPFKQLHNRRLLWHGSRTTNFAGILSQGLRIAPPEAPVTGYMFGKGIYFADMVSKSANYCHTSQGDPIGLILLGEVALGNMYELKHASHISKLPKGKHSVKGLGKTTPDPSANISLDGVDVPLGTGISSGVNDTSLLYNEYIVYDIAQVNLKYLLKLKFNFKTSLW
Protein cereblon/Poly [ADP-ribose] polymerase 1, sequence (Q96SW2 whole entry): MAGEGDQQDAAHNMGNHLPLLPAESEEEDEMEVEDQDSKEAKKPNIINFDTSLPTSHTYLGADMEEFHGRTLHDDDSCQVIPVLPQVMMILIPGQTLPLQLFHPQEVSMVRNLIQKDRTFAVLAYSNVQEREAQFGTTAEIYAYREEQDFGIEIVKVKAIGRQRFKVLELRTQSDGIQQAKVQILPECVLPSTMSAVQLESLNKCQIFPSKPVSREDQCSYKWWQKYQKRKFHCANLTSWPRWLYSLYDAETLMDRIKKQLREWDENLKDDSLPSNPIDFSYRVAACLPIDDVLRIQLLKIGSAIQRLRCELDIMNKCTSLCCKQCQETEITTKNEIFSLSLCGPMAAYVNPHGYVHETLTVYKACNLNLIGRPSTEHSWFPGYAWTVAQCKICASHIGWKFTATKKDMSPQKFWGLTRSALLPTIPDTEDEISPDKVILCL

T2 sequence (P30291 whole entry, looked up): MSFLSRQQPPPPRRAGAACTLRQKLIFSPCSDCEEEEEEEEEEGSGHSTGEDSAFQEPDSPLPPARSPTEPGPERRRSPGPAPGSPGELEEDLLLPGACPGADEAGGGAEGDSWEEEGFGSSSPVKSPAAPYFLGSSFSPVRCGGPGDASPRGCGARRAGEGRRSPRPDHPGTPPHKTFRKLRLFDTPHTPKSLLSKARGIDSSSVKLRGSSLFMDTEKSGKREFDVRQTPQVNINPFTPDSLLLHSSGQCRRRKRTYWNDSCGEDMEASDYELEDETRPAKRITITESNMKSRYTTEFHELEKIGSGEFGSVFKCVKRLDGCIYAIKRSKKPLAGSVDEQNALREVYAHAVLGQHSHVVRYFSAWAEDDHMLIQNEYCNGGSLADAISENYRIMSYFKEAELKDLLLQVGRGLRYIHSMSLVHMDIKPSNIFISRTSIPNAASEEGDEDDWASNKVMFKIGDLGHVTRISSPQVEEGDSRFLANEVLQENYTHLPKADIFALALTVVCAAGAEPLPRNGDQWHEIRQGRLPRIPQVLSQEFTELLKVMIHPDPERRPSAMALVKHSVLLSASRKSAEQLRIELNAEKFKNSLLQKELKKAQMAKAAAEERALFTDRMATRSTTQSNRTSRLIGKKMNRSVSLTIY
T2 sequence (Q96SW2 whole entry, looked up): as the sequence (Q96SW2 whole entry) above
Protein cereblon/Bromodomain-containing protein 2 (Homo sapiens), sequence (P25440 whole entry, looked up): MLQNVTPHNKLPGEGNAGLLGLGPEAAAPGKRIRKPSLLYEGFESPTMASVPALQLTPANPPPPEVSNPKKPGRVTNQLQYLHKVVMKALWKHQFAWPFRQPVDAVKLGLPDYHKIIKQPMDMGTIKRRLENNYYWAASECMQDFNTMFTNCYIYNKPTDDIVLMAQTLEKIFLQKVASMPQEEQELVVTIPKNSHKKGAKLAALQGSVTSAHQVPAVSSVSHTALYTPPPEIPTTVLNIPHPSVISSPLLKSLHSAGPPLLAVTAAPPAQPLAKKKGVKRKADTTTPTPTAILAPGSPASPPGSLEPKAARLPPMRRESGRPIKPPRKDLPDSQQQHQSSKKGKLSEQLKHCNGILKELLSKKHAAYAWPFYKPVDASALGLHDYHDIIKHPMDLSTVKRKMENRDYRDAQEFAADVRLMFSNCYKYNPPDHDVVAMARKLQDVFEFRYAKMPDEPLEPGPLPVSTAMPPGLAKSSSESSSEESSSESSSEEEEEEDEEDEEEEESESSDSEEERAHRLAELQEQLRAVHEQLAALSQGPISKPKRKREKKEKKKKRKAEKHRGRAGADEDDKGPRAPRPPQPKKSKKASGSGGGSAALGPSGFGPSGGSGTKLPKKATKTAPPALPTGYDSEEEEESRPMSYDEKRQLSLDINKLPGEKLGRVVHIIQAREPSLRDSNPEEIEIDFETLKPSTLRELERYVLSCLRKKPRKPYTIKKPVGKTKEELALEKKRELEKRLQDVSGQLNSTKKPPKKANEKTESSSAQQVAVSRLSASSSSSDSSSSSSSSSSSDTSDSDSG
Protein cereblon/Bromodomain-containing protein 2 (Homo sapiens), sequence (Q96SW2 whole entry, looked up): as the sequence (Q96SW2 whole entry) above

Compound: Nc1ncc(-c2ccc(C(=O)N3CCN(CCCCC(=O)Nc4cccc5c4C(=O)N(C4CCC(=O)NC4=O)C5=O)CC3)cc2)nc1C(=O)Nc1ccccc1 (configuration not stated)
- Emax [1]: > 50%
- inhibition in vivo at 25 mg/kg (MV4-11): 57%

Compound: Cc1ncsc1-c1ccc(CNC(=O)[C@@H]2C[C@@H](O)CN2C(=O)[C@@H](NC(=O)C2(F)CC2)C(C)(C)C)c(OCCCN2CCC(c3ccc4c(c3)n(C3CCCC3)c3nc(=O)c5c(Br)cccc5n43)CC2)c1
- DC50 [2]: 78 nM
- Emax [3]: 46%

Compound: C=CCn1c(=O)c2cnc(Nc3ccc(N4CCN(CCCNc5cccc6c5C(=O)N(C5CCC(=O)NC5=O)C6=O)CC4)cc3)nc2n1-c1cccc(C(C)(C)O)n1 (configuration not stated)
- Emax [4]: 50%
- IC50 (MOLT-4): 390 nM

Compound: C=CCn1c(=O)c2cnc(Nc3ccc(N4CCN(CCCC(=O)N[C@H](C(=O)N5C[C@H](O)C[C@H]5C(=O)NCc5ccc(-c6scnc6C)cc5)C(C)(C)C)CC4)cc3)nc2n1-c1cccc(C(C)(C)O)n1
- Emax [5]: > 70%

Compound: C=CCn1c(=O)c2cnc(Nc3ccc(N4CCN(C)CC4)cc3)nc2n1-c1cccc(C(C)(C)O)n1 [ADAVOSERTIB]
- IC50 (MOLT-4): 800 nM

Compound: COc1ccc(C(=O)/C=C/C(=O)N2CCN(c3cc(-c4ccccc4O)nnc3N)CC2)cc1
- Emax [6]: > 95%

Compound: C=CCn1c(=O)c2cnc(Nc3ccc(N4CCN(CCCC(=O)NCCOCCOCCNc5cccc6c5C(=O)N(C5CCC(=O)NC5=O)C6=O)CC4)cc3)nc2n1-c1cccc(C(C)(C)O)n1 (configuration not stated)
- Emax [7]: > 80%

Compound: Cc1ncsc1-c1ccc([C@@H](CCCN2CCC(c3ccc4c(c3)n(C3CCCC3)c3nc(=O)c5c(Br)cccc5n43)CC2)NC(=O)[C@@H]2C[C@@H](O)CN2C(=O)[C@@H](NC(=O)C2(F)CC2)C(C)(C)C)cc1
- DC50 [8]: 2 nM
- Emax [3]: 77%

Compound: C[C@H]1COCCN1c1cc(C2([S@](C)(=O)=NC(=O)CCc3cn(CCCCCCCC(=O)Nc4cccc5c4C(=O)N(C4CCC(=O)NC4=O)C5=O)nn3)CC2)nc(-c2ccnc3[nH]ccc23)n1 (some centres not stated)
- Emax [9]: > 80%
- Emax [10]: > 80%
- inhibition in vivo at 25 mg/kg (LoVo [11]): 35.9%
- inhibition in vivo at 50 mg/kg (LoVo [12]): 51.8%

Compound: O=C(CCCCCCCCCCC(=O)c1cc(Cc2n[nH]c(=O)c3ccccc23)ccc1F)Cc1cccc2c1CN(C1CCC(=O)NC1=O)C2=O (configuration not stated)
- DC50 [13]: 5400 nM
